Columns and labels:
[1] = test system: SW480 cells; assay: 2D drug screen, MTS assay; format: cell-based; settings: Homo sapiens, read-out: relative cellular viability (MTS, relative to control)
Method: Cancer cells seeded directly into wells were given 4-5 hours to reattach to the bottom of the wells. After that time, the anticancer drug solutions were administered in place of the media (FIG. 6, panel A) and an MTS assay was carried out 2 days later to determine cell viability. […] At 100 μM concentrations of Regorafenib and Sorafenib, and 100 mM concentrations of 5-FU, cellular viability remained below 20% that of the control for all four of the colorectal cancer cell lines utilized. However, screening with Dabrafenib and Trametinib produced diverging results from the other three anticancer drugs at higher concentrations. […] When treated with 1 mM concentrations of 5-FU, relative cellular viability was approximately 39% for SW480 cells and remained between 10%-22% for the HCT116, HT29, and CACO2 cells. These values were considerably lower than the relative cellular viability values for the lowest concentrations of the other anticancer drugs.
Cell Seeding: The original 15 mL centrifuge tubes containing the 10 mL of DMEM-10, cells, and trypsin were placed into a centrifuge. The centrifugation setting was 1500 RPM and at maximal acceleration for 5 minutes. After that time, the media and trypsin mixture was aspirated from the tubes, leaving the cell pellets still intact. 5 mL of DMEM-10 was then pipetted into each of the tubes, resuspending the cells in the process. Calculated volumes of the 5 mL cell-media solution were determined to ensure that 25,000 cells of each of the four colorectal cancer cell lines were seeded directly into each of the wells of a polystyrene clear-bottom 96-well plate. 100 μL of DMEM-10 media was then pipetted directly into the wells. The 96-well plates were incubated at 37° C. and 5% CO2 for 5 hours to allow the cells to reattach themselves to the bottom of the wells until media was aspirated and anticancer drug solutions were added.
Addition of Anticancer Drugs for Screening: The anticolorectal cancer drugs used in this screening included 5-FU, Regorafenib, Sorafenib, Trametinib, and Dabrafenib (Sigma-Aldrich, Missouri, USA)). High concentration drug stock solutions were created with DMSO. Lower concentration drug solutions were created by mixing the anticancer drug stocks with DMEM-10 media. […] drug solutions were generated for 5-FU; 1 μM, 10 μM, and 100 μM drug solutions were generated for Regorafenib, Sorafenib, and Dabrafenib; and 1 nM, 10 nM, and 100 nM drug solutions were generated for Trametinib. Media was carefully aspirated from the wells and 200 μL of the various drug-media solutions were placed into the wells containing cells. Three duplicates were generated for each anticancer drug concentration with each of the different cell types to calculate averages and run statistics on the data generated. Well plates were then incubated at 37° C. and 5% CO2 for […].
Cell viability assay: Cell viability was determined 48 hours after exposure to the anticancer drug solutions. The viability of the cells was examined by the CellTiter 96® AQueous One Solution Cell Proliferation (MTS) assay (Promega, Wisconsin, USA). The anticancer drug-media solutions were aspirated from the wells and 200 μL of the MTS reagent was carefully pipetted into the wells. The incubation time for the cells with the MTS reagent was approximately 45 minutes. The cell viability assay was performed on another 96-well plate and the absorbance was quantified by the EnVision Multilabel Plate Reader (PerkinElmer, California, USA).

[2] = test system: HCT116 cells; assay: 3D hyaluronan-based hydrogel construct drug screen, MTS assay; settings: Homo sapiens, HCT-116, 3D, read-out: percent relative cell viability (MTS, relative to control)
Method: Polydimethylsiloxane, or PDMS, was used to coat the bottom of the wells. Cells were embedded within the hyaluronan-based hydrogel and were given 5 days to acclimate to their three-dimensional environment and on day 5 were administered different anticancer drug solutions (FIG. 7, panel A). […], Dabrafenib had greater efficacy in targeting the HCT116 and SW480 cell lines, which had relative cellular viability values of 38% and 43%, as opposed to the HT29 and CACO2 cell lines, which had higher cell viability values of 93% and 75%. […]
(§1) Well Coating with PDMS and Cell Isolation: Polydimethylsiloxane, or PDMS, (DOW Corning, North Carolina, USA) was used at a 1:10 curing agent ratio to coat the bottom of the 96-well plates and the plates were then placed in a 80° C. oven for at least one hour. Cells were passaged in the same methods previously mentioned (A) with the desire to place 10 μL 3D hyaluronan-based hydrogel constructs containing 100,000 cells each ([…]) into the wells of a 96-wells plate for all four colorectal cancer cell types. Depending on the cell count, a desired number of cells were isolated in new 15 mL centrifuge tubes as cell-media solution and underwent centrifugation.
(§2) Hydrogel Components of the Single-Cell Type Constructs: The hyaluronic acid-based hydrogel (ESI BIO, California, USA) was produced using a mixture of three components: Heprasil, Gelin-S, and Extralink PEGDA 2-ARM Acrylate crosslinker. These components were mixed in a 2:2:1 ratio by volume. 0.1% Irgacure photoinitiator (Sigma-Aldrich, Missouri, USA) was added to each of the three components prior to their mixture and the three components were placed in a 37° C. incubator for a ˜30 minutes to solubilize.
Forming Organoid Constructs: Once solubilized, the media was aspirated from the 15 mL centrifuge tube (post-centrifugation) and the cells were isolated as a pellet. The hydrogel components were added directly into the centrifuge tube containing the cells and the cells were carefully resuspended in the mixture. 10 μL of the gel-cell solution was placed in the center of the wells on the PDMS coating. This was continued for all wells containing cells and was repeated for each cell type. After this point, the gel can be exposed to UV light from a BlueWave 200 spot light (Dymax, Connecticut, USA) to solidify the hydrogel, or one can wait ˜30 minutes for the gel to form on its own. DMEM-10 media was then placed in the wells and the constructs were incubated for 5 days.
Anticancer Drug Screening and Cell Viability: The same five anticancer drugs were added on Day 5 and the cell viability assay occurred on Day 7.

[3] = test system: CACO2 cells; assay: as above; settings: Homo sapiens, Caco-2, 3D, read-out: percent relative cell viability (MTS, relative to control)
Method: Polydimethylsiloxane, or PDMS, was used to coat the bottom of the wells. Cells were embedded within the hyaluronan-based hydrogel and were given 5 days to acclimate to their three-dimensional environment and on day 5 were administered different anticancer drug solutions (FIG. 7, panel A). […] At 100 μM concentrations of Regorafenib and Sorafenib, cellular viability remained below 25% that of the control for all four of the colorectal cancer cell lines utilized. The only exception to this was when 100 μM Regorafenib was administered to CACO2 cells and the percent relative cell viability rose to approximately 48%. […] At a 100 μM concentration, Dabrafenib had greater efficacy in targeting the HCT116 and SW480 cell lines, which had relative cellular viability values of 38% and 43%, as opposed to the HT29 and CACO2 cell lines, which had higher cell viability values of 93% and 75%. 100 μM concentrations of Trametinib produced relative cellular viability results that fell within a narrow range for the four colorectal cell lines with values of 54% for SW480 cells and 74% for HT29 cells.
as §1, §2
Forming Organoid Constructs: Once solubilized, the media was aspirated from the 15 mL centrifuge tube (post-centrifugation) and the cells were isolated as a pellet. The hydrogel components were added directly into the centrifuge tube containing the cells and the cells were carefully resuspended in the mixture. 10 μL of the gel-cell solution was placed in the center of the wells on the PDMS coating. This was continued for all wells containing cells and was repeated for each cell type. […]

SMILES | viability at 1000 µM ([1]; 1 mM) | viability at 100000 µM ([1]; 100 mM) | viability at 10000 µM ([2]; 10 mM, HCT116) | viability at 100000 µM ([2]; 100 mM, HCT116) | viability at 10000 µM ([3]; 10 mM, CACO2) | viability at 100 µM ([1]; 100 μM) | viability at 100 µM ([2]; 100 μM, HCT116, drug day 5, assay day 7) | viability at 100 µM ([3]; 100 μM, CACO2, drug day 5, assay day 7)
O=c1[nH]cc(F)c(=O)[nH]1 [5-FU, 5-Fluorouracil] | ~39% | < 20% | 18% | 81% | 22% |  |  | 
CNC(=O)c1cc(Oc2ccc(NC(=O)Nc3ccc(Cl)c(C(F)(F)F)c3)c(F)c2)ccn1 [Regorafenib] |  |  |  |  |  | < 20% | < 25% | ~48%

Source: patent US20190187129A1, “CANCER MODELING PLATFORMS AND METHODS OF USING THE SAME” (Wake Forest University Health Sciences, priority 2016, published 2019)
